# Measured values: patent US8268848B2, “Cyclopropane compound” (Eisai R&D Management Co., Ltd., priority 2010, dated 2012)
# pIC50: −log10 of the molar value.
# Target: T1, OX2 (Homo sapiens, UniProt O43614)
# T1 sequence (O43614 1-444): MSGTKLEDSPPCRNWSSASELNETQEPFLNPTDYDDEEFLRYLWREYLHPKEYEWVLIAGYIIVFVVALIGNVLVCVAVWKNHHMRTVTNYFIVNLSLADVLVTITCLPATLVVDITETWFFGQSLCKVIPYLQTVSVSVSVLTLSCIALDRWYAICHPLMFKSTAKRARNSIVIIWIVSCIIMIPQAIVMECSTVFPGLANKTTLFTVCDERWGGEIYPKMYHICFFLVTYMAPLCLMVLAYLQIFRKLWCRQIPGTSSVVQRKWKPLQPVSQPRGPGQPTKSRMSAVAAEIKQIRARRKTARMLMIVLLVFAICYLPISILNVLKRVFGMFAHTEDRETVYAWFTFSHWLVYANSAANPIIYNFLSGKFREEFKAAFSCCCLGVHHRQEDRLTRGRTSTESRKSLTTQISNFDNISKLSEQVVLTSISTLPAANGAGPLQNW
# Assay: Measurement of orexin receptor-binding ability ([125I]-OX-A, cell membranes, OX2)
# Set-up: expressed in transfected cells; host or cells: CHO cells (membrane preparation)
# Details: OX2 (IC50) nM, membranes of recombinant CHO cells expressing OX2, 0.2 nM [125I]-OX-A
# Protocol: 1. Measurement of Orexin Receptor-Binding Ability
# The assay was carried out using a 96-well Wheat Germ Agglutinin Flash Plate (PerkinElmer). The volume in a single assay well was 100 ul, and the composition of the reaction solution was as follows:
# 25 mM HEPES (pH 7.5), 1 mM CaCl2, 4.5 mM MgCl2, 0.5% BSA (bovine serum albumin), 0.1% sodium azide, 0.05% Tween-20, and 0.2% DMSO.
# Cell membranes were prepared from recombinant CHO cells that expressed OX2 or OX1. The cell membranes were used in an amount of 5 μg protein/assay. […] Finally, the radioactivity of each well was measured using a scintillation counter (TopCount, PerkinElmer).
row,Compound,IC50 [nM]
1,COc1cccc([C@]2(COc3cnc(C)nc3C)C[C@H]2C(=O)Nc2ccc(F)cc2)c1 [Example 187],16
2,Cc1ncc(OC[C@@]2(c3cccc(F)c3)C[C@H]2C(=O)Nc2cccc(F)c2)c(C)n1 [Example 83],14
3,COCc1nc(C)ncc1OCC1(c2cccc(Cl)c2)CC1C(=O)Nc1ccc(F)cn1 (centres unmarked) [Example 222],68
4,COc1cc([C@]2(COc3cnc(C)nc3C)C[C@H]2C(=O)Nc2ccc(F)cn2)ccc1F [Example 314],173
5,Cc1ncc(OC[C@@]2(c3ccc(F)cc3)C[C@H]2C(=O)Nc2cccc(F)c2)c(C)n1 [Example 107],41
6,Cc1ncc(OC[C@@]2(c3cccc(C#N)c3)C[C@H]2C(=O)Nc2ccc(F)cn2)c(C)n1 [Example 116],14

# Same assay, conditions: membranes of recombinant CHO cells expressing OX2, 0.2 nM [125I]-OX-A; read-out: OX2 (IC50)
row,Compound,pIC50
1,CCc1nc(C)ncc1OC[C@@]1(c2ccc(F)cc2)C[C@H]1C(=O)Nc1ccc(F)cc1 [Example 250],7.85
2,"COCc1nc(C)ncc1OC[C@@]1(c2cccc(Cl)c2)C[C@H]1C(=O)Nc1cc(C)c(F)cn1 [Example 226, (1R,2S)-2-(3-chlorophenyl)-N-(5-fluoro-4-methylpyridin-2-yl)-2-{[(4-methoxymethyl-2-methylpyrimidin-5-yl)oxy]methyl}cyclopropanecarboxamide]",8.15
3,COc1cc([C@]2(COc3cnc(C)nc3C)C[C@H]2C(=O)Nc2ccc(Cl)cn2)ccc1F [Example 257],7.08
4,Cc1ncc(OC[C@@]2(c3ccccc3)C[C@H]2C(=O)Nc2ccnc(C(F)(F)F)c2)c(C)n1 [Example 44],7.59
5,"COCc1nc(C)ncc1OC[C@@]1(c2cc(F)cc(OC)c2)C[C@H]1C(=O)Nc1ccc(F)cc1 [Example 231, (1R,2S)-2-(3-fluoro-5-methoxyphenyl)-N-(4-fluorophenyl)-2-{[(4-methoxymethyl-2-methylpyrimidin-5-yl)oxy]methyl}cyclopropanecarboxamide]",8.15
6,Cc1ncc(OC[C@@]2(c3ccc(F)cc3)C[C@H]2C(=O)Nc2ccc(F)c(F)c2)c(C)n1 [Example 106],7.72
7,COCc1nc(C)ncc1OC[C@@]1(c2ccc(F)c(F)c2)C[C@H]1C(=O)Nc1cccc(F)c1F [Example 217],7.68
8,COCCc1nc(C)ncc1OC[C@@]1(c2cccc(F)c2)C[C@H]1C(=O)Nc1ccc(F)cc1 [Example 230],7.80
9,COc1cccc([C@]2(COc3cnc(C)nc3C)C[C@H]2C(=O)Nc2ccccn2)c1 [Example 188],7.21
10,COCc1nc(C)ncc1OC[C@@]1(c2ccc(F)cc2)C[C@H]1C(=O)Nc1ccc(F)cc1F [Example 209],7.32
11,COCc1nc(C)ncc1OCC1(c2cccc(Cl)c2)CC1C(=O)Nc1ccc(Cl)cn1 (centres unmarked) [Example 223],7.47
12,COc1cc([C@]2(COc3cnc(C)nc3C)C[C@H]2C(=O)Nc2ccc(F)cc2)ccc1F [Example 315],6.68
13,"Cc1ncc(OC[C@@]2(c3ccc(F)c(F)c3)C[C@H]2C(=O)Nc2ccc(F)c(F)c2)c(C)n1 [Example 170, (1R,2S)-N,2-bis(3,4-difluorophenyl)-2-{[(2,4-dimethylpyrimidin-5-yl)oxy]methyl}cyclopropanecarboxamide]",8.15
14,COCc1nc(C)ncc1OC[C@@]1(c2ccccc2)C[C@H]1C(=O)Nc1cc(Cl)ccn1 [Example 143],7.85
15,"COCc1nc(C)ncc1OC[C@@]1(c2ccc(F)c(OC)c2)C[C@H]1C(=O)Nc1cc(C)c(F)cn1 [Example 239, (1R,2S)-2-(4-fluoro-3-methoxyphenyl)-N-(5-fluoro-4-methylpyridin-2-yl)-2-{[(4-methoxymethyl-2-methylpyrimidin-5-yl)oxy]methyl}cyclopropanecarboxamide]",8.15
16,Cc1ncc(OC[C@@]2(c3cc(F)cc(F)c3)C[C@H]2c2nc3ncccc3[nH]2)c(C)n1 [Example 308],7.51
17,COCc1nc(C)ncc1OC[C@@]1(c2ccc(F)cc2)C[C@H]1C(=O)Nc1cc(F)ccc1F [Example 210],< 7.22
18,COCc1nc(C)ncc1OC[C@@]1(c2ccc(F)c(OC)c2)C[C@H]1C(=O)Nc1ccc(F)cc1 [Example 237],7.51
19,COc1cc(F)cc(C2(COc3cnc(C)nc3C)CC2C(=O)Nc2ccc(C#N)cn2)c1 (centres unmarked) [Example 253],7.39
20,"COCc1nc(C)ncc1OC[C@@]1(c2cc(F)cc(OC)c2)C[C@H]1C(=O)Nc1ccc(F)cn1 [Example 233, (1R,2S)-2-(3-fluoro-5-methoxyphenyl)-N-(5-fluoropyridin-2-yl)-2-[(4-methoxymethyl-2-methylpyrimidin-5-yl)oxymethyl]cyclopropanecarboxamide]",8.22
21,Cc1ncc(OC[C@@]2(c3ccc(F)c(F)c3)C[C@H]2C(=O)Nc2cc(F)ccc2F)c(C)n1 [Example 172],7.55
22,COCCc1nc(C)ncc1OC[C@@]1(c2cccc(F)c2)C[C@H]1C(=O)Nc1ccccn1 [Example 228],7.35
23,COc1cc([C@]2(COc3cnc(C)nc3C)C[C@H]2C(=O)Nc2cc(C)c(F)cn2)ccc1F [Example 258],< 7.22
24,CCc1nc(C)ncc1OC[C@@]1(c2ccccc2)C[C@H]1C(=O)Nc1cncc(OC)c1 [Example 123],7.54
25,COCc1nc(C)ncc1OC[C@@]1(c2ccc(F)c(OC)c2)C[C@H]1C(=O)Nc1ccc(F)c(F)c1 [Example 238],7.82
26,COCc1nc(C)ncc1OCC1(c2cccc(Cl)c2)CC1C(=O)Nc1ccc(F)cc1 (centres unmarked) [Example 224],7.57

# The remaining lines, values ahead:
row,pIC50,Compound
1,7.16,COCc1nc(C)ncc1OC[C@@]1(c2ccccc2)C[C@H]1C(=O)Nc1cc(F)ccc1F [Example 147]
2,7.51,CCc1nc(C)ncc1OC[C@@]1(c2ccccc2)C[C@H]1C(=O)Nc1ccc(F)cc1 [Example 124]
3,7.68,Cc1ncc(OC[C@@]2(c3cccc(C#N)c3)C[C@H]2C(=O)Nc2ccc(F)cc2)c(C)n1 [Example 115]
4,7.68,COCc1nc(C)ncc1OC[C@@]1(c2cc(F)cc(F)c2)C[C@H]1C(=O)Nc1cc(C)c(F)cn1 [Example 220]
5,7.70,COCc1nc(C)ncc1OC[C@@]1(c2ccccc2)C[C@H]1C(=O)Nc1cccc(F)c1 [Example 148]
6,7.74,COc1cc(F)cc(C2(COc3cnc(C)nc3C)CC2C(=O)Nc2ccc(F)cc2)c1 (centres unmarked) [Example 252]
7,7.77,CCc1nc(C)ncc1OC[C@@]1(c2ccc(F)cc2)C[C@H]1C(=O)Nc1cccc(F)c1 [Example 249]
8,7.82,Cc1ncc(OC[C@@]2(c3cc(F)cc(F)c3)C[C@H]2C(=O)Nc2cc(F)ccc2F)c(C)n1 [Example 136]
9,7.85,COCc1nc(C)ncc1OCC1(c2cccc(Cl)c2)CC1C(=O)Nc1ccc(C#N)cn1 (centres unmarked) [Example 227]
10,7.92,COCc1nc(C)ncc1OC[C@@]1(c2ccc(F)c(F)c2)C[C@H]1C(=O)Nc1cc(F)ccc1F [Example 215]
11,7.92,COCc1nc(C)ncc1OC[C@@]1(c2ccccc2)C[C@H]1C(=O)Nc1ccc(C(F)(F)F)cn1 [Example 144]
12,7.96,COCc1nc(C)ncc1OC[C@@]1(c2ccc(F)cc2)C[C@H]1C(=O)Nc1cccc(F)c1 [Example 208]
13,8.00,"COCc1nc(C)ncc1OC[C@@]1(c2ccccc2)C[C@H]1C(=O)Nc1ccc(F)cc1 [Example 149, (1R,2S)-N-(4-fluorophenyl)-2-{[(4-methoxymethyl-2-methylpyrimidin-5-yl)oxy]methyl}-2-phenylcyclopropanecarboxamide]"
14,8.00,"COCc1nc(C)ncc1OC[C@@]1(c2ccccc2)C[C@H]1C(=O)Nc1ccc(F)c(F)c1 [Example 150, (1R,2S)-N-(3,4-difluorophenyl)-2-{[(4-methoxymethyl-2-methylpyrimidin-5-yl)oxy]methyl}-2-phenylcyclopropanecarboxamide]"
15,8.05,"COCc1nc(C)ncc1OC[C@@]1(c2ccccc2)C[C@H]1C(=O)Nc1cc(C)c(F)cn1 [Example 145, (1R,2S)-N-(5-fluoro-4-methylpyridin-2-yl)-2-{[(4-methoxymethyl-2-methylpyrimidin-5-yl)oxy]methyl}-2-phenylcyclopropanecarboxamide]"
16,8.15,"COCc1nc(C)ncc1OC[C@@]1(c2ccc(F)c(F)c2)C[C@H]1C(=O)Nc1ccc(F)c(F)c1 [Example 214, (1R,2S)-N,2-bis(3,4-difluorophenyl)-2-{[(4-methoxymethyl-2-methylpyrimidin-5-yl)oxy]methyl}cyclopropanecarboxamide]"
17,8.15,"COCc1nc(C)ncc1OC[C@@]1(c2cccc(F)c2)C[C@H]1C(=O)Nc1cc(F)ccc1F [Example 197, (1R,2S)-N-(2,5-difluorophenyl)-2-(3-fluorophenyl)-2-{[(4-methoxymethyl-2-methylpyrimidin-5-yl)oxy]methyl}cyclopropanecarboxamide]"
18,8.22,"COCc1nc(C)ncc1OC[C@@]1(c2cc(F)cc(OC)c2)C[C@H]1C(=O)Nc1ccccn1 [Example 235, (1R,2S)-2-(3-fluoro-5-methoxyphenyl)-2-[(4-methoxymethyl-2-methylpyrimidin-5-yl)oxymethyl]-N-(pyridin-2-yl)cyclopropanecarboxamide]"
